How the values were obtained:
[1] = Liver triphosphate pharmacokinetics after single oral dose in cynomolgus monkeys; format: in vivo; conditions: 6 hours post dose, 10 mg/kg oral, normalized to 1 μmol/kg dose
Experimental: For each compound, a single oral dose at 10 mg/kg in PEG 200 (dose volume 3 mL/kg) was administered to cynomolgus monkeys. Untreated animals were used for the collection of control liver. Plasma samples were collected at 0.5, 1, 2, 4, 6, 8, 12 and 24 hours for compound 37, diastereomer 2.
Liver samples were analyzed for the relevant nucleoside triphosphate by LC-MS/MS. […] Appropriate internal standard solution was added to the homogenate followed by neutralization with 20% ammonium hydroxide solution and addition of 500 μL 1% formic acid. The tissue samples were extracted by weak anion exchange solid phase extraction (SPE). Post extraction, the eluates were evaporated under nitrogen, followed by reconstitution before injection onto the LC-MS/MS system.

Huh-7 cells = test: Release of active metabolite in Huh-7 cells; format: in vitro ADME
Experimental: Huh-7 cells were plated in 1 mL culture medium (DMEM, containing glucose, L-glutamine and sodium pyruvate, 10% FBS, 100 IU/mL penicillin, 100 μg/mL streptomycin, 2 mM GlutaMAX, 1% MEM non-essential amino acids) at the concentration 0.8, 0.4 and 0.2 million cells per well on 6 well plates for 24, 48 and 72 hr treatment, respectively. Plated cells were incubated overnight at 37° C. in an incubator.
The following morning test compound was diluted to 20 μM from a stock solution in DMSO in fresh culture medium pre-warmed to 37° C. and 1 mL of the solution/well was added to cells. A final medium volume per well was 2.0 mL, test compound concentration in well was 10 μM and final DMSO concentration was 0.1%.
After 24, 48 or 72 hr, the medium was carefully removed and cell monolayers were washed twice with 2 mL ice-cold PBS per well. Following the last wash, all PBS was carefully removed and 1.0 mL of extraction solution (ice-cold 70% methanol) added. The plate was tightly covered with Parafilm, plastic plate cover and Parafilm again and an intracellular content was extracted at −20° C. for 24 hr.
After 24 hr the extracts were transferred into polypropylene microfuge tubes and dry on a refrigerated centrivap concentrator. Dry residues were reconstituted in 250 μL of HPLC-grade water and centrifuged at 16,000×g for 10 min. Aliquots (100 μL each) of the supernatants were transferred into a 96 well plate and internal standard (4 ng/mL final concentration) was added as the internal standard (IS) for LC-MS/MS analysis.

[2] = Stability in simulated gastric fluid; format: in vitro ADME; conditions: simulated gastric fluid with pepsin, 100 μM, 2 hours, 37° C.
Experimental: Stability in Simulated Gastric and Intestinal Fluids: Simulated gastric and intestinal fluids containing pepsin and pancreatin respectively were prepared according to the U.S. Pharmacopoeia USP291 procedure(www.pharmacopeia.cn/v29240/usp29nf24s0_ris1s126.html). Each test compound (final concentration 100 μM) was incubated in duplicate in the appropriate fluid for 2 hours at 37° C. The samples were quenched with […] cold acetonitrile, vortexed for 30 seconds and then centrifuged at 16100×g for 10 min. The supernatants were analyzed by HPLC on a C-18 column with UV detection at 252 nm. The time zero samples were prepared by adding SGF or SIF fluid to the quenching solvent followed by the test compound. Stability of the compound was determined by peak area of the test compound after incubation and calculated as percent of the peak area observed at time zero.

HCV genotype 1b replicon = test: HCV replicon assay (Zluc luciferase); format: cell-based; conditions: Zluc cells, 72 hours; read-out: HCV Replicon EC50
In short: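 Zluc Huh-7 cells with HCV genotype 1b replicon and luciferase reporter treated with 5-fold dilutions (100 μM to 0.0000512 μM final) in duplicate, or at 1 and 10 μM. Luminescence read with ONE-glo; EC50 from dose-response fits, or % inhibition at the fixed concentrations.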

fresh mouse hepatocytes = test: Release of active metabolite in fresh mouse hepatocytes; format: in vitro ADME; conditions: 10 μM
Experimental: Plates of fresh human and mouse hepatocytes were obtained on ice. The medium was removed and replaced with hepatocyte culture medium (William's E supplemented with penicillin-streptomycin, 1% L-glutamine, 1% insulin-transferrin-selenium and 0.1 μM Dexamethasone (Invitrogen) or with Invitro GRO HI medium complemented with Torpedo antibiotics (Celsis)). Cells were left overnight in an incubator at 37° C. to acclimatize to culture and the medium.
Hepatocyte incubations were conducted at a final volume of 0.5 mL hepatocyte culture medium/well (0.8 million cells/well for human and 0.5 million cells/well for mouse; 12 well plate no overlay, collagen coat). Culture medium from overnight incubation of cells was removed and replaced with fresh medium, pre-warmed to 37° C., containing 10 μM of test compound from a stock solution in DMSO (final DMSO concentration was 0.1%). At each specific time point, incubation medium was removed and cell monolayers were carefully washed two times with ice-cold PBS. Following the last wash, all PBS was carefully removed and 1.0 mL of extraction solution (ice-cold 70% methanol/30% water) added. Cells were scraped off and suspended in the extraction solution, transferred to 2 mL polypropylene microfuge tubes and intracellular contents extracted overnight at −20° C.
After the overnight treatment the cellular extracts were prepared by centrifugation at 16,000×g for 10 min to remove cellular debris. The remaining sample was then dried using a refrigerated centrivap concentrator. Dry extracts were reconstituted in 1000 μL of HPLC-grade water and centrifuged at 16,000×g for 10 min. Aliquots (100 μL each) of the supernatant were transferred into a 96 well plate and internal standard (4 ng/mL final concentration) was added as the internal standard (IS) for LC-MS/MS analysis.
The incubation time points were 6, 24 and 48 hours for human hepatocytes and 1, 4, 8, 12 and 24 hours for mouse hepatocytes.

Structure (SMILES): CC(C)OC(=O)[C@H](C)NP(=O)(OC[C@H]1O[C@@H](n2ccc(=O)[nH]c2=O)[C@](C)(Cl)[C@@H]1O)Oc1ccccc1 (single isomer, unassigned) [Compound 40ii Diastereomer 2]
- Nucleoside triphosphate in Liver C6 [1]: ++++ (100 < ++++)
- Huh-7 TP AUC (Huh-7 cells; 10 μM): ++++ (1500 < ++++)
- Huh-7 TP Cmax (Huh-7 cells; 10 μM test compound): ++++ (100 < ++++)
- Huh-7 TP (24 hr) (Huh-7 cells; 10 μM, 24 hr): ++++ (100 < ++++)
- Huh-7 TP (48 hr) (Huh-7 cells; 10 μM, 48 hr): ++++ (100 < ++++)
- Huh-7 TP (72 hr) (Huh-7 cells; 10 μM, 72 hr): ++++ (100 < ++++)
- SGF stability (percent remaining) [2]: ++++ (75% < ++++)
- EC50 (HCV genotype 1b replicon): < 250 nM
- MsH AUC (fresh mouse hepatocytes): ++++ (1500 < ++++)
- MsH Cmax (fresh mouse hepatocytes): +++ (50 < +++ ≤ 100)

Source: patent US10513534B2, “2′-chloro nucleoside analogs for HCV infection” (priority 2012, dated 2019)
